Measured values: patent US7851474B2, “Dipiperazinyl ketones and related analogues” (Neurogen Corporation, priority 2005, dated 2010)
pKi: −log10 of the molar value.

molecular target: T1, chimeric human H3 receptor (Homo sapiens, UniProt Q9Y5N1, E19D); assay: Chimeric human H3 receptor GTP binding assay (agonist-stimulated GTP-gamma35S binding, Example 7); type: biochemical; conditions: Table II "Ki", symbol "*": Ki in the assay of Example 7; read-out: Ki
T1 construct: made in house; host or cells: Sf9 insect cells (baculovirus infection); P2 membrane preparation
T1 sequence (Q9Y5N1 with tags, fused parts or gaps E19D): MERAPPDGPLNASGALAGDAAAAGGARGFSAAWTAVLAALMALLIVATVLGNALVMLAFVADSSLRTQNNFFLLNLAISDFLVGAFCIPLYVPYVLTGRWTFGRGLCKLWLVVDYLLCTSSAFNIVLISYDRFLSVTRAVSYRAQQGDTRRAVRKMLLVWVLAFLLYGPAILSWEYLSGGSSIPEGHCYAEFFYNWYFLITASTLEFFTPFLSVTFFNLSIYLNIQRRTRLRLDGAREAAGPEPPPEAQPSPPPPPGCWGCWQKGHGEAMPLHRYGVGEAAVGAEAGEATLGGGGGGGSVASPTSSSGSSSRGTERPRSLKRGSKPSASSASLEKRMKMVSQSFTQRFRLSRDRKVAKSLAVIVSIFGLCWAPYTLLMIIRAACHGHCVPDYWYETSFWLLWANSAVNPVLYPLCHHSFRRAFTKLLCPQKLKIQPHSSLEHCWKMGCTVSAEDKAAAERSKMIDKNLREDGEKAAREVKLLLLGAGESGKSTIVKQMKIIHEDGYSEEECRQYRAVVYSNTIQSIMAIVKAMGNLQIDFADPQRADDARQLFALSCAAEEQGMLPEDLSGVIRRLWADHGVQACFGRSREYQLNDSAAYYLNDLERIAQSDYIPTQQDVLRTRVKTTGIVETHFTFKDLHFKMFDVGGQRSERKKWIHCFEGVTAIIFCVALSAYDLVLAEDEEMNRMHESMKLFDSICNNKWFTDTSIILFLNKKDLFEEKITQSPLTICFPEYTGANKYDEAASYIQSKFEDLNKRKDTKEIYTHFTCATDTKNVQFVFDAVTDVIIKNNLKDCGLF
Procedure, shortened: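 IC50 values come from non-linear regression of dose-response curves of filter-bound GTP-gamma^35S, counted by scintillation. Membranes were from infected Sf9 cells carrying receptor plus G-protein subunits, 35 μg/tube, with 10 μM GDP present.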

pKi, > 6.00:
O=C(CN1CCN(c2cnc(-c3cc(C(F)(F)F)ccc3Cl)cn2)CC1)N1CCN(C2CCC2)CC1 [Compound 912, 2-[2-chloro-5-(trifluoromethyl)phenyl]-5-{4-[2-(4-cyclobutylpiperazin-1-yl)-2-oxoethyl]piperazin-1-yl}pyrazine]
O=C(CN1CCN(c2cnc(-c3cc(C(F)(F)F)cc(C(F)(F)F)c3)cn2)CC1)N1CCN(C2CCC2)CC1 [Compound 913, 2-[3,5-bis(trifluoromethyl)phenyl]-5-{4-[2-(4-cyclobutylpiperazin-1-yl)-2-oxoethyl]piperazin-1-yl}pyrazine]
O=C(CN1CCN(c2cnc(-c3ccc(Cl)c(C(F)(F)F)c3)cn2)CC1)N1CCN(C2CCC2)CC1 [Compound 914, 2-[4-chloro-3-(trifluoromethyl)phenyl]-5-{4-[2-(4-cyclobutylpiperazin-1-yl)-2-oxoethyl]piperazin-1-yl}pyrazine]
O=C(CN1CCN(c2nc3ccccc3n2Cc2ccc(F)cc2)CC1)N1CCN(C2CCC2)CC1 [Compound 915, 2-{4-[2-(4-cyclobutylpiperazin-1-yl)-2-oxoethyl]piperazin-1-yl}-1-(4-fluorobenzyl)-1H-benzimidazole]
O=C(CN1CCN(c2ncc(F)cn2)CC1)N1CCN(C2CCC2)CC1 [Compound 916, 2-{4-[2-(4-cyclobutylpiperazin-1-yl)-2-oxoethyl]piperazin-1-yl}-5-fluoropyrimidine]
O=C(CN1CCN(c2cnc(-c3ccncc3)cn2)CC1)N1CCN(C2CCC2)CC1 [Compound 917, 2-{4-[2-(4-cyclobutylpiperazin-1-yl)-2-oxoethyl]piperazin-1-yl}-5-pyridin-4-ylpyrazine]
O=C(CN1CCN(c2cnc(-c3ccccc3)cn2)CC1)N1CCN(C2CCC2)CC1 [Compound 918, 2-{4-[2-(4-cyclobutylpiperazin-1-yl)-2-oxoethyl]piperazin-1-yl}-5-phenylpyrazine]
O=C(CN1CCN(c2cnc(-c3ccc(F)cc3)cn2)CC1)N1CCN(C2CCC2)CC1 [Compound 919, 2-{4-[2-(4-cyclobutylpiperazin-1-yl)-2-oxoethyl]piperazin-1-yl}-5-(4-fluorophenyl)pyrazine]
Cc1ccc(-c2cnc(N3CCN(CC(=O)N4CCN(C5CCC5)CC4)CC3)cn2)c(F)c1 [Compound 920, 2-{4-[2-(4-cyclobutylpiperazin-1-yl)-2-oxoethyl]piperazin-1-yl}-5-(2-fluoro-4-methylphenyl)pyrazine]
Cc1ccc(F)c(-c2cnc(N3CCN(CC(=O)N4CCN(C5CCC5)CC4)CC3)cn2)c1 [Compound 921, 2-{4-[2-(4-cyclobutylpiperazin-1-yl)-2-oxoethyl]piperazin-1-yl}-5-(2-fluoro-5-methylphenyl)pyrazine]
Cc1ccc(-c2cnc(N3CCN(CC(=O)N4CCN(C5CCC5)CC4)CC3)cn2)cc1F [Compound 922, 2-{4-[2-(4-cyclobutylpiperazin-1-yl)-2-oxoethyl]piperazin-1-yl}-5-(3-fluoro-4-methylphenyl)pyrazine]
Cc1cc(-c2cnc(N3CCN(CC(=O)N4CCN(C5CCC5)CC4)CC3)cn2)ccc1F [Compound 923, 2-{4-[2-(4-cyclobutylpiperazin-1-yl)-2-oxoethyl]piperazin-1-yl}-5-(4-fluoro-3-methylphenyl)pyrazine]
Cc1cccc(-c2cnc(N3CCN(CC(=O)N4CCN(C5CCC5)CC4)CC3)cn2)c1 [Compound 924, 2-{4-[2-(4-cyclobutylpiperazin-1-yl)-2-oxoethyl]piperazin-1-yl}-5-(3-methylphenyl)pyrazine]
Cc1ccc(-c2cnc(N3CCN(CC(=O)N4CCN(C5CCC5)CC4)CC3)cn2)cc1 [Compound 925, 2-{4-[2-(4-cyclobutylpiperazin-1-yl)-2-oxoethyl]piperazin-1-yl}-5-(4-methylphenyl)pyrazine]
CC(C)c1cccc(-c2cnc(N3CCN(CC(=O)N4CCN(C5CCC5)CC4)CC3)cn2)c1 [Compound 926, 2-{4-[2-(4-cyclobutylpiperazin-1-yl)-2-oxoethyl]piperazin-1-yl}-5-(3-isopropylphenyl)pyrazine]
CC(C)c1ccc(-c2cnc(N3CCN(CC(=O)N4CCN(C5CCC5)CC4)CC3)cn2)cc1 [Compound 927, 2-{4-[2-(4-cyclobutylpiperazin-1-yl)-2-oxoethyl]piperazin-1-yl}-5-(4-isopropylphenyl)pyrazine]
Cc1ccc(-c2cnc(N3CCN(CC(=O)N4CCN(C5CCC5)CC4)CC3)cn2)cc1C [Compound 928, 2-{4-[2-(4-cyclobutylpiperazin-1-yl)-2-oxoethyl]piperazin-1-yl}-5-(3,4-dimethylphenyl)pyrazine]
Cc1cc(C)cc(-c2cnc(N3CCN(CC(=O)N4CCN(C5CCC5)CC4)CC3)cn2)c1 [Compound 929, 2-{4-[2-(4-cyclobutylpiperazin-1-yl)-2-oxoethyl]piperazin-1-yl}-5-(3,5-dimethylphenyl)pyrazine]
CCc1ccc(-c2cnc(N3CCN(CC(=O)N4CCN(C5CCC5)CC4)CC3)cn2)cc1 [Compound 930, 2-{4-[2-(4-cyclobutylpiperazin-1-yl)-2-oxoethyl]piperazin-1-yl}-5-(4-ethylphenyl)pyrazine]
CCCc1ccc(-c2cnc(N3CCN(CC(=O)N4CCN(C5CCC5)CC4)CC3)cn2)cc1 [Compound 931, 2-{4-[2-(4-cyclobutylpiperazin-1-yl)-2-oxoethyl]piperazin-1-yl}-5-(4-propylphenyl)pyrazine]
CCc1cccc(-c2cnc(N3CCN(CC(=O)N4CCN(C5CCC5)CC4)CC3)cn2)c1 [Compound 932, 2-{4-[2-(4-cyclobutylpiperazin-1-yl)-2-oxoethyl]piperazin-1-yl}-5-(3-ethylphenyl)pyrazine]
COc1cccc(-c2cnc(N3CCN(CC(=O)N4CCN(C5CCC5)CC4)CC3)cn2)c1 [Compound 933, 2-{4-[2-(4-cyclobutylpiperazin-1-yl)-2-oxoethyl]piperazin-1-yl}-5-(3-methoxyphenyl)pyrazine]
O=C(CN1CCN(c2cnc(-c3ccc(OC(F)(F)F)cc3)cn2)CC1)N1CCN(C2CCC2)CC1 [Compound 934, 2-{4-[2-(4-cyclobutylpiperazin-1-yl)-2-oxoethyl]piperazin-1-yl}-5-[4-(trifluoromethoxy)phenyl] pyrazine]
CCOc1cccc(-c2cnc(N3CCN(CC(=O)N4CCN(C5CCC5)CC4)CC3)cn2)c1 [Compound 935, 2-{4-[2-(4-cyclobutylpiperazin-1-yl)-2-oxoethyl]piperazin-1-yl}-5-(3-ethoxyphenyl)pyrazine]
O=C(CN1CCN(c2cnc(-c3ccc(Oc4ccccc4)cc3)cn2)CC1)N1CCN(C2CCC2)CC1 [Compound 936, 2-{4-[2-(4-cyclobutylpiperazin-1-yl)-2-oxoethyl]piperazin-1-yl}-5-(4-phenoxyphenyl)pyrazine]
O=C(CN1CCN(c2cnc(-c3cccc(OC(F)(F)F)c3)cn2)CC1)N1CCN(C2CCC2)CC1 [Compound 937, 2-{4-[2-(4-cyclobutylpiperazin-1-yl)-2-oxoethyl]piperazin-1-yl}-5-[3-(trifluoromethoxy)phenyl] pyrazine]
CSc1cccc(-c2cnc(N3CCN(CC(=O)N4CCN(C5CCC5)CC4)CC3)cn2)c1 [Compound 938, 2-{4-[2-(4-cyclobutylpiperazin-1-yl)-2-oxoethyl]piperazin-1-yl}-5-[3-(methylthio)phenyl] pyrazine]

same assay, conditions: Table II; assay of Example 7; "*" in Ki; read-out: Ki

pKi, > 6.00:
COc1ccc(-c2ccc(-c3cnc(N4CCN(CC(=O)N5CCN(C6CCC6)CC5)CC4)cn3)cc2)cc1 [Compound 939, 2-{4-[2-(4-cyclobutylpiperazin-1-yl)-2-oxoethyl]piperazin-1-yl}-5-(4′-methoxybiphenyl-4-yl)pyrazine]
COc1cc(F)c(-c2cnc(N3CCN(CC(=O)N4CCN(C5CCC5)CC4)CC3)cn2)cc1F [Compound 940, 2-{4-[2-(4-cyclobutylpiperazin-1-yl)-2-oxoethyl]piperazin-1-yl}-5-(2,5-difluoro-4-methoxyphenyl)pyrazine]
COc1ccc2cc(-c3cnc(N4CCN(CC(=O)N5CCN(C6CCC6)CC5)CC4)cn3)ccc2c1 [Compound 941, 2-{4-[2-(4-cyclobutylpiperazin-1-yl)-2-oxoethyl]piperazin-1-yl}-5-(6-methoxy-2-naphthyl)pyrazine]
CC(C)Oc1cccc(-c2cnc(N3CCN(CC(=O)N4CCN(C5CCC5)CC4)CC3)cn2)c1 [Compound 942, 2-{4-[2-(4-cyclobutylpiperazin-1-yl)-2-oxoethyl]piperazin-1-yl}-5-(3-isopropoxyphenyl) pyrazine]
COc1cc(-c2cnc(N3CCN(CC(=O)N4CCN(C5CCC5)CC4)CC3)cn2)cc(OC)c1OC [Compound 943, 2-{4-[2-(4-cyclobutylpiperazin-1-yl)-2-oxoethyl]piperazin-1-yl}-5-(3,4,5-trimethoxyphenyl)pyrazine]
COc1ccc(-c2cnc(N3CCN(CC(=O)N4CCN(C5CCC5)CC4)CC3)cn2)cc1 [Compound 944, 2-{4-[2-(4-cyclobutylpiperazin-1-yl)-2-oxoethyl]piperazin-1-yl}-5-(4-methoxyphenyl)pyrazine]
COc1ccc(-c2cnc(N3CCN(CC(=O)N4CCN(C5CCC5)CC4)CC3)cn2)cc1OC [Compound 945, 2-{4-[2-(4-cyclobutylpiperazin-1-yl)-2-oxoethyl]piperazin-1-yl}-5-(3,4-dimethoxyphenyl) pyrazine]
CCOc1ccc(-c2cnc(N3CCN(CC(=O)N4CCN(C5CCC5)CC4)CC3)cn2)cc1 [Compound 946, 2-{4-[2-(4-cyclobutylpiperazin-1-yl)-2-oxoethyl]piperazin-1-yl}-5-(4-ethoxyphenyi)pyrazine]
